Experimental data: patent US20050153923A1, “Targeted drug delivery using EphA2 or EphA4 binding moieties” (priority 2003, published 2005)
“Also recorded” adds a separate entry of the source.

Experiments:
EphA2 = EphA2 expression in MDA-MB-231 cells after antisense transfection (Western blot); assay type: cell-based; settings: 2 μg/ml oligonucleotide, 24 hours
MDA-MB-231 cells = experiment: Soft agar colonization of MDA-MB-231 cells after antisense transfection; assay type: cell-based
Experimental: Monolayers of MDA-MB-231 cells were transfected with 2 μg/ml of EphA2 antisense or inverse antisense (IAS) oligonucleotides at 37° C. for 24 hours. […] The membranes were stripped and reprobed with paxillin antibodies as a loading control (B). The relative mobility of molecular mass standards is shown on the left of panels A and B. (C) MDA-MB-231 cell monolayers, treated with antisense oligonucleotides as detailed above, were suspended in soft agar for 7 days before microscopic analysis of colony formation. […] Results are reported as colonies per high-powered field (HPF).
An antisense oligonucleotide-based approach that decreased EphA2 expression in tumor cells independent of EphA2 activation was developed. […] Inverted antisense oligonucleotides (5′-[…]-3′; SEQ ID NO:109) provided a control. The cells were transfected with oligonucleotides (2 μg/ml) using Lipofectamine PLUS Reagent (Life Technologies, Inc.) according to the manufacturer's protocol. Twenty-four hours post-transfection, the cells were divided. Half of the cells were seeded into soft agar, and the remaining cells were extracted and subjected to Western blot analysis.
MDA-MB-231 cells were suspended in soft agar. […] Colony formation was scored microscopically using an Olympus CK-3 inverted phase-contrast microscope outfitted with a 40× objective. Clusters containing at least three cells were scored as a positive. […]

MCF-7^EphA2 cells [1] = experiment: Soft agar colonization of MCF-7^EphA2 cells; assay type: cell-based; settings: TAM 1 μM, EA2 10 μg/ml
Experimental: (B) MCF-7 (circles) or MCF-7^EphA2 cells (squares) were implanted into the mammary fatpad (n=15 mice per group) in the presence of supplemental estrogen.
MCF-7^EPhA2 cells were incubated in the presence of 3 μg/ml of EA2 for the time indicated prior to sample extraction and Western blot analyses with an EphA2-specific antibody (D7). (B) The membrane was stripped and re-probed with a β-catenin-specific antibody as a loading control.
(§1) Growth assays were conducted as follows. MCF-7^neo (control cells) or MCF7^EphA2 cells were seeded in 96-well plates. […] Colony formation in soft agar was performed as previously described (Zelinski et al., 2001, Cancer Res. 61: 2301-6) and scored microscopically, defining clusters of at least three cells as a positive. The data represent the average of ten separate high-power microscopic fields from each sample and representative of at least three separate experiments. Error bars represent the standard error of the mean of at least three different experiments as determined using Microsoft Excel software.
Growth MCF-7^EphA2 cells which had decreased EphA2 expression levels was assayed in soft agar.

control MCF-7 cells = experiment: Soft agar colonization of control MCF-7 cells; assay type: cell-based; settings: TAM 1 μM; EA2 10 μg/ml; FIG. 13C
Experimental: as §1, with “software. […]” for “software.”

MCF-7^EphA2 cells [2] = experiment: Tumorigenic potential of MCF-7^EphA2 vs control cells in mammary fat pad of athymic mice under tamoxifen; assay type: in vivo; settings: tamoxifen 1 mg oral gavage 6 days per week, from 17 days post-implantation; supplemental estrogen; FIG. 11B
Experimental: (B) MCF-7 (circles) or MCF-7^EphA2 cells (squares) were implanted into the mammary fatpad (n=15 mice per group) in the presence of supplemental estrogen. […] Tumor volume of tamoxifen treated (black circles and squares) and saline treated (white circles and squares) animals was measured at the indicated time.
Consistent with increased soft agar colonization, orthotopically implanted MCF-7^EphA2 cells formed larger, more rapidly growing tumors in vivo. Six to eight week-old athymic (nu/nu) mice were purchased from Harlan Sprague Dawley (Indianapolis, Ind.). When indicated, a controlled release estradiol pellet (0.72 mg 17β-estradiol, 60-day formulation) was injected subcutaneously via a sterile 14-gauge trocar 24 hours prior to tumor implantation and pellets were replaced every 60 days for those experiments spanning>60 days in duration. 1×10^6 MCF-7^neo or MCF7^EphA2 cells were injected into the mammary fat pad under direct visualization.

## 5′-CCAGCAGTACCGCTTCCTTGCCCTGCGGCCG-3′ (all phosphorothioate, sugars by position and methylation of C not given here; listed as Homo Sapiens) [EphA2 antisense oligonucleotides, phosphorothioate-modified antisense oligonucleotides unique to EphA2]
EphA2
  EphA2 expression / protein level after oligonucleotide transfection: selectively decreased EphA2 expression in MDA-MB-231 cells; also recorded: decreases EphA2 protein levels
MDA-MB-231 cells; 2 μg/ml oligonucleotide, 7 days in soft agar, FIG. 14C
  Decrease of soft agar colonization vs matched controls: at least 60%
MDA-MB-231 cells; P<0.002
  Colony formation in soft agar vs inverted antisense control: significantly impaired

## 5′-GCCGCGTCCCGTTCCTTCACCATGACGACC-3′ (listed as DNA, chemistry not given here; listed as Homo sapiens) [IAS, inverted antisense control oligonucleotide, reference compound]
EphA2
  EphA2 expression / protein level after oligonucleotide transfection: did not

## C[C@]12CC[C@@H]3c4ccc(O)cc4CC[C@H]3[C@@H]1CC[C@@H]2O [estradiol, 17β-estradiol, reference compound]
MCF-7^EphA2 cells [1]; 1 μM 17β-estradiol, FIGS. 11A, 13C (11A also MCF-7)
  Soft agar colonization response / tamoxifen sensitivity, MCF-7^EphA2 cells: overcame the inhibitory effects of tamoxifen

## tamoxifen [reference compound]
Control MCF-7 cells
  Soft agar colonization response, control MCF-7 cells: sensitive to tamoxifen
MCF-7^EphA2 cells [1]; 14 days
  Inhibition / decrease of soft agar colonization, MCF-7^EphA2 cells: 25%
MCF-7^EphA2 cells [2]
  Sensitivity of tumorigenic potential to tamoxifen, MCF-7^EphA2 vs control (MCF-7^neo): less sensitive to tamoxifen; also recorded: lower inhibitory effects of tamoxifen on MCF-7^EphA2 relative to control cells
